Experimental data: ChEMBL document CHEMBL5463723, “Data for DCP probe BIBO3304” (2023); call rule not given here

Assays:
[1] = target: Gamma-aminobutyric acid receptor subunit alpha-1 (Rattus norvegicus) (UniProt P62813); assay: Agonist activity in the Eurofins Panlabs screen (BI) against GABAA-AGSI/R by Scintillation counting; details: Compound concentration 10.0 uM
[2] = target: Neuropeptide Y receptor type 4 (Rattus norvegicus, UniProt Q63447); assay: Radioligand binding assay (rat NPY4R, CHO cells); assay type: cell-based
[3] = target: Metabotropic glutamate receptor (Rattus norvegicus) (UniProt P31424+P70579+P31423+P31421+P31422+P35349+P35400+P23385); assay: Activity against GLUTAMAT/R in the Eurofins Panlabs screen (BI) by Radioactive Assay; assay type: protein assay; details: Compound concentration 10.0 uM
[4] = target: Tyrosine-protein kinase Lck (Homo sapiens) (UniProt P06239); assay: Inhibitor of LCK_CE in the Eurofins Cerep SafetyScreen44 (BI) by lanthanide chelation excitation (Cerep_2906); details: Compound concentration 10.0 uM
[5] = target: ATP-sensitive inward rectifier potassium channel 1 isoform X1 (Mesocricetus auratus) (UniProt A0A1U8CU73); assay: Activity against K+/KATP/HA in the Eurofins Panlabs screen (BI) by Radioactive Assay; details: Compound concentration 10.0 uM
[6] = target: Adrenergic receptor alpha-2 (Rattus norvegicus) (UniProt P22086+P19328+P22909); assay: Activity against ALPHA2/R in the Eurofins Panlabs screen (BI) by Others; assay type: protein assay; details: Compound concentration 10.0 uM
[7] = target: 5-hydroxytryptamine receptor 2B (Homo sapiens) (UniProt P41595); assay: 5-HT2B Eurofins-Cerep binding assay; details: Compound concentration 10.0 uM
Cavia porcellus = species on record: Cavia porcellus; assay: Activity against SIGMA/NS/GP in the Eurofins Panlabs screen (BI) by Radioactive Assay; details: Compound concentration 10.0 uM
[8] = target: D(3) dopamine receptor (Homo sapiens) (UniProt P35462); assay: Activity against D3/HU in the Eurofins Panlabs screen (BI) by Scintillation counting; details: Compound concentration 10.0 uM
[9] = target: Muscarinic acetylcholine receptor M3 (Homo sapiens) (UniProt P20309); assay: M3 Eurofins-Cerep binding assay; parameters: ligand concentration 0.2 nM; details: Compound concentration 10.0 uM
[10] = target: Histamine H1 receptor (Homo sapiens) (UniProt P35367); assay: H1 Eurofins-Cerep binding assay; parameters: ligand concentration 1 nM; details: Compound concentration 10.0 uM
[11] = target: Beta-1 adrenergic receptor (Oryctolagus cuniculus) (UniProt A0A4Y6F0G0); assay: Activity against BETA1/RB in the Eurofins Panlabs screen (BI) by Radioactive Assay; details: Compound concentration 10.0 uM
[12] = target: Sodium-dependent noradrenaline transporter (Homo sapiens) (UniProt P23975); assay: norepinephrine transporter Eurofins-Cerep binding assay; parameters: ligand concentration 1 nM; details: Compound concentration 10.0 uM
[13] = target: Protein kinase C beta type (Homo sapiens) (UniProt P05771); assay: Inhibitor of PKCBETA in the Eurofins Panlabs screen (BI) by Radioactive Assay; details: Compound concentration 10.0 uM
[14] = target: cGMP-inhibited 3',5'-cyclic phosphodiesterase 3A (Homo sapiens) (UniProt Q14432); assay: Inhibitor of PDE3A in the Eurofins Cerep SafetyScreen44 (BI) by HTRF-homogeneous time resolved fluoresce (Cerep_4072); details: Compound concentration 10.0 uM
[15] = target: Potassium voltage-gated channel subfamily A member 1 (Rattus norvegicus) (UniProt P10499); assay: Activity against K+/KA/R in the Eurofins Panlabs screen (BI) by Radioactive Assay; details: Compound concentration 10.0 uM
[16] = target: Cholecystokinin receptor type A (Homo sapiens) (UniProt P32238); assay: CCK1 (CCKA) Eurofins-Cerep binding assay; parameters: ligand concentration 0.08 nM; details: Compound concentration 10.0 uM
[17] = target: Androgen receptor (Rattus norvegicus) (UniProt P15207); assay: Activity against TESTOST/R in the Eurofins Panlabs screen (BI) by Radioactive Assay; details: Compound concentration 10.0 uM
[18] = target: Histamine H1 receptor (Cavia porcellus) (UniProt P31389); assay: Activity against H1/CENT/GP in the Eurofins Panlabs screen (BI) by Radioactive Assay; details: Compound concentration 10.0 uM
[19] = target: Mu-type opioid receptor (Homo sapiens) (UniProt P35372); assay: mu (MOP) Eurofins-Cerep binding assay; parameters: ligand concentration 0.5 nM; details: Compound concentration 10.0 uM
Rattus norvegicus = species on record: Rattus norvegicus; assay: Activity against BZD/CENTR/R in the Eurofins Cerep SafetyScreen44 (BI) by Radioactive Assay (Cerep_28); assay type: protein-complex assay; details: Compound concentration 10.0 uM
[20] = target: Prostaglandin G/H synthase 1 (Homo sapiens) (UniProt P23219); assay: Inhibitor of COX-1 in the Eurofins Cerep SafetyScreen44 (BI) by Fluorimetry (Cerep_4173); details: Compound concentration 10.0 uM
[21] = target: 3-hydroxy-3-methylglutaryl-coenzyme A reductase (Rattus norvegicus) (UniProt P51639); assay: Inhibitor of HMGCOARED in the Eurofins Panlabs screen (BI) by Radioactive Assay; details: Compound concentration 30.0 uM
[22] = target: Tyrosine-protein kinase Fyn (Homo sapiens) (UniProt P06241); assay: Inhibitor of P59TYRKINFYN in the Eurofins Panlabs screen (BI) by FI - fluorescence intensity; details: Compound concentration 10.0 uM
[23] = target: Glutamate NMDA receptor (Rattus norvegicus) (UniProt P35439+Q00959+Q00960+Q00961+Q62645+Q8VHN2+Q9R1M7); assay: Inhibitor of NMDA/R in the Eurofins Cerep SafetyScreen44 (BI) by Radioactive Assay (Cerep_66); assay type: protein-complex assay; details: Compound concentration 10.0 uM
[24] = target: D(2) dopamine receptor (Homo sapiens) (UniProt P14416); assay: Activity against D2HSPIP in the Eurofins Panlabs screen (BI); details: Compound concentration 10.0 uM
[25] = target: Epidermal growth factor receptor (Homo sapiens) (UniProt P00533); assay: Inhibitor of EGFRTYRKIN in the Eurofins Panlabs screen (BI) by Fluorimetry; details: Compound concentration 10.0 uM
[26] = target: Delta-type opioid receptor (Homo sapiens) (UniProt P41143); assay: delta (DOP) Eurofins-Cerep binding assay; parameters: ligand concentration 0.5 nM; details: Compound concentration 10.0 uM
MAO-A = MAO-A (Homo sapiens, UniProt P21397); assay: Agonist activity in the Eurofins Cerep SafetyScreen44 (BI) against MAO-A_ANTAG by Scintillation counting (Cerep_443); parameters: scale not given: the % may be the effect or the level left; details: rat; compound concentration 10 uM; target entry is the homologue from another species; read-out: % Ctrl
[27] = target: D(2) dopamine receptor (Homo sapiens) (UniProt P14416); assay: Agonist activity in the Eurofins Cerep SafetyScreen44 (BI) against D2SH_AGON by Scintillation counting (Cerep_1322); details: Compound concentration 10.0 uM
[28] = target: Neuronal acetylcholine receptor subunit beta-2 (Rattus norvegicus) (UniProt P12390); assay: Activity against NACH/CENT/R in the Eurofins Panlabs screen (BI) by Radioactive Assay; details: Compound concentration 10.0 uM
[29] = target: G_PROTEIN_RECEP_F1_2 domain-containing protein (Cavia porcellus) (UniProt A0A286XTF2); assay: Activity against DELTA/GP in the Eurofins Panlabs screen (BI) by Radioactive Assay; details: Compound concentration 10.0 uM
[30] = target: Calcitonin-gene-related peptide receptor; CALCRL/RAMP1 (Rattus norvegicus) (UniProt Q63118+Q9JJ74); assay: Activity against CGRP/R in the Eurofins Panlabs screen (BI) by Radioactive Assay; assay type: protein-complex assay; details: Compound concentration 10.0 uM
[31] = target: Serotonin 2 (5-HT2) receptor (Rattus norvegicus) (UniProt P30994+P08909+P14842); assay: Activity against 5HT2/R in the Eurofins Panlabs screen (BI) by Radioactive Assay; assay type: protein assay; details: Compound concentration 10.0 uM
[32] = target: Muscarinic acetylcholine receptor M1 (Homo sapiens) (UniProt P11229); assay: M1 Eurofins-Cerep binding assay; parameters: ligand concentration 2 nM; details: Compound concentration 10.0 uM
[33] = target: Muscarinic acetylcholine receptor M2 (Homo sapiens) (UniProt P08172); assay: M2 Eurofins-Cerep binding assay; parameters: ligand concentration 2 nM; details: Compound concentration 10.0 uM
[34] = target: Adenosine receptor A1 (Rattus norvegicus) (UniProt P25099); assay: Activity against A1/R in the Eurofins Panlabs screen (BI) by Radioactive Assay; details: Compound concentration 10.0 uM
Mus musculus = species on record: Mus musculus; assay: Inhibitor of PHORBOLE/M in the Eurofins Panlabs screen (BI) by Radioactive Assay; details: Compound concentration 10.0 uM

Chain of D(2) dopamine receptor (Homo sapiens) (P14416 whole entry): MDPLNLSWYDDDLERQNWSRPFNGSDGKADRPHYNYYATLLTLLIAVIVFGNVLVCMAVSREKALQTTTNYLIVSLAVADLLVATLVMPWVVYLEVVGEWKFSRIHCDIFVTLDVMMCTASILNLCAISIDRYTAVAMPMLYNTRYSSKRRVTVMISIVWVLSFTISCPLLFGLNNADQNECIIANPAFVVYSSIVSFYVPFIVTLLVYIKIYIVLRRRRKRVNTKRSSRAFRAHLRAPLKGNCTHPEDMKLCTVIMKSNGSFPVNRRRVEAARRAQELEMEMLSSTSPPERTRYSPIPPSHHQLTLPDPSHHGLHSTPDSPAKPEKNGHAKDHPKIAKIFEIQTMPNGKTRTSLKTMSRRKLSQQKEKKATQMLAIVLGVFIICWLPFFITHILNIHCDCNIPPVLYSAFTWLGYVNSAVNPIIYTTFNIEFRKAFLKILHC
Chain of Gamma-aminobutyric acid receptor subunit alpha-1 (Rattus norvegicus) (P62813 whole entry): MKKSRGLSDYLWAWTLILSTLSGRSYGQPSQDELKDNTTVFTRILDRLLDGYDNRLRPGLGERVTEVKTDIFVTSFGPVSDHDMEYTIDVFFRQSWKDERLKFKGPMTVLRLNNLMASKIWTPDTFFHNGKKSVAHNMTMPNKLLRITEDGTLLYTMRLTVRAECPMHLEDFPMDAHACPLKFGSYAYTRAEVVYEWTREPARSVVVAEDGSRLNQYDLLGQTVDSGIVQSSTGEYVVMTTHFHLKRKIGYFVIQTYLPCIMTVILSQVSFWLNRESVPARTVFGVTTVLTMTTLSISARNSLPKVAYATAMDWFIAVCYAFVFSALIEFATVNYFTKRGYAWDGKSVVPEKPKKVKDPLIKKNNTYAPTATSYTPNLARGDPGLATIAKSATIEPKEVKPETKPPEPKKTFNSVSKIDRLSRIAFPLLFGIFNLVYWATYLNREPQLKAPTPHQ
Chain of Potassium voltage-gated channel subfamily A member 1 (Rattus norvegicus) (P10499 whole entry): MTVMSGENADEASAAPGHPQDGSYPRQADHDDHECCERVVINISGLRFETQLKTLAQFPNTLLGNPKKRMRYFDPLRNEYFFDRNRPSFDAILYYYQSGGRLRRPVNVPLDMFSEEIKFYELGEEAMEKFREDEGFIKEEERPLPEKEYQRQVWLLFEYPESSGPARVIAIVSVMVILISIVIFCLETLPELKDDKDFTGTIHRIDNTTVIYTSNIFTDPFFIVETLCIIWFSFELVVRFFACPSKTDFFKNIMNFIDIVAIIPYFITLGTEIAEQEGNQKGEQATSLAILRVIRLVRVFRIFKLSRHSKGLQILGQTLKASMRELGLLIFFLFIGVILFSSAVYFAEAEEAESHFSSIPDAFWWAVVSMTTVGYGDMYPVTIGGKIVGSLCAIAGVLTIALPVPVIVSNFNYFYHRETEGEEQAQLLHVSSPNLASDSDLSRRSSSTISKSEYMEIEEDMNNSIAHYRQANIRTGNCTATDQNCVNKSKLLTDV
Chain of Cholecystokinin receptor type A (Homo sapiens) (P32238 whole entry): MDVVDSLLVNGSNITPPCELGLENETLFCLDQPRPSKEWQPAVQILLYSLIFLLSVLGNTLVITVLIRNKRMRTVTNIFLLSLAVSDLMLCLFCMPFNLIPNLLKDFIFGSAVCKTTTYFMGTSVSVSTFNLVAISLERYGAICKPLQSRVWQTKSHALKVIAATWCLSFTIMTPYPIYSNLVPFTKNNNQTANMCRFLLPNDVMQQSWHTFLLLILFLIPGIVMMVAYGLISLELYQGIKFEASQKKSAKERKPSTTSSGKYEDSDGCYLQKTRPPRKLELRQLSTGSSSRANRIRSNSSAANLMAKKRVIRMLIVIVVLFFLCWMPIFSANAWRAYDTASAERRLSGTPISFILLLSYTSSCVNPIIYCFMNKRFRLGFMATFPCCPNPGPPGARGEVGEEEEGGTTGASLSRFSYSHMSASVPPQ
Chain of Sodium-dependent noradrenaline transporter (Homo sapiens) (P23975 whole entry): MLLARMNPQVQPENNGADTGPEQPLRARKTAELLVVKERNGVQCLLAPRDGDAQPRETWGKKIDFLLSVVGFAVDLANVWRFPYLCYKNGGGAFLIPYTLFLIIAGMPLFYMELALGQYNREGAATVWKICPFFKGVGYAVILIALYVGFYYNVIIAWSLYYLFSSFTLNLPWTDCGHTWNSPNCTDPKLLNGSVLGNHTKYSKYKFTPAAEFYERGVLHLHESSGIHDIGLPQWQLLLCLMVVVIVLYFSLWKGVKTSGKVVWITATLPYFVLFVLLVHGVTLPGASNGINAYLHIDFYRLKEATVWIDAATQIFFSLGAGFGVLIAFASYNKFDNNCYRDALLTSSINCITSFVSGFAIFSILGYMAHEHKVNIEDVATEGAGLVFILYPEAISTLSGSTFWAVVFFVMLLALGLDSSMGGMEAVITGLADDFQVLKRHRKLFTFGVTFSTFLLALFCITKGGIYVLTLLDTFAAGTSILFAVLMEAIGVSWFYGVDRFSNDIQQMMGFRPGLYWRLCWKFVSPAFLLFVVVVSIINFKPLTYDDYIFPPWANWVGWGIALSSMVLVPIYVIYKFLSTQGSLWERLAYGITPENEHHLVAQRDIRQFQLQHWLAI
Chain of MAO-A (P21397 whole entry): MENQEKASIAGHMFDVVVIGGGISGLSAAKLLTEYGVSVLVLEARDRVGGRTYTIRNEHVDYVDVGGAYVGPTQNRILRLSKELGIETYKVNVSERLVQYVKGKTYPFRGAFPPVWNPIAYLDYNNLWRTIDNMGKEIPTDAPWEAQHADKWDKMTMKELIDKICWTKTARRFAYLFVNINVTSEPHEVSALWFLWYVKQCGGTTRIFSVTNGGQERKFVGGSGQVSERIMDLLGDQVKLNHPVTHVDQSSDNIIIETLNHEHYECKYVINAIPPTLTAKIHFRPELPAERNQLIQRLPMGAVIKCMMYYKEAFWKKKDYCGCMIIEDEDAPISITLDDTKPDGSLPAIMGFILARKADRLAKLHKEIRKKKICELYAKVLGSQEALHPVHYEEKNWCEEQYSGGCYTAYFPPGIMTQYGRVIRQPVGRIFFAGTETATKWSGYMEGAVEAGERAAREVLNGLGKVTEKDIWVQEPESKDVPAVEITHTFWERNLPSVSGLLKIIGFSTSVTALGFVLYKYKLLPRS
Chain of Serotonin 2 (5-HT2) receptor (Rattus norvegicus) (P08909 whole entry, looked up): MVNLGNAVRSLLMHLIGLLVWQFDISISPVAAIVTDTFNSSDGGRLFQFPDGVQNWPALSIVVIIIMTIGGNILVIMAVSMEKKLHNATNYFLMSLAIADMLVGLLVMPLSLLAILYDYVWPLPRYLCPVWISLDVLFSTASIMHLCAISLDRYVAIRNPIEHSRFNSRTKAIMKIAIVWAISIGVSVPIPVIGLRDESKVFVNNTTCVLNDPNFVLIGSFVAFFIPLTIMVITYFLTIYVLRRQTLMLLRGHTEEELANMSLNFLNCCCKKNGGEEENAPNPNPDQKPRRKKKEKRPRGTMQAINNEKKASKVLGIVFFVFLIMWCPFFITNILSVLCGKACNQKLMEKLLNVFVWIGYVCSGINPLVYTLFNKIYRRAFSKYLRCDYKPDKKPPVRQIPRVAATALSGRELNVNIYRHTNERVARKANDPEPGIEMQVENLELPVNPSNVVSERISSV
Chain of Serotonin 2 (5-HT2) receptor (Rattus norvegicus) (P14842 whole entry, looked up): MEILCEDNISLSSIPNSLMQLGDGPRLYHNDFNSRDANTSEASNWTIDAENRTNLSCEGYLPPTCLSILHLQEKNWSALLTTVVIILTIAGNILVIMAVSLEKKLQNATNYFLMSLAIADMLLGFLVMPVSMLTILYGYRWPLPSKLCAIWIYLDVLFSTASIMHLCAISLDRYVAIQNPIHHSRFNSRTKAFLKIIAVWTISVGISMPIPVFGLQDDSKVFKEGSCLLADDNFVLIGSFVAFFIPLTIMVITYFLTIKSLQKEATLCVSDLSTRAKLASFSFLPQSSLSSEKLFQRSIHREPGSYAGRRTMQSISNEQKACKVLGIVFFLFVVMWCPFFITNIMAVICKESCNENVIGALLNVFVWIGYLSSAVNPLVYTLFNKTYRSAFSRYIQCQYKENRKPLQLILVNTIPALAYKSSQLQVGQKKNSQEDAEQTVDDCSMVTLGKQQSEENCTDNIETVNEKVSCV
Chain of Serotonin 2 (5-HT2) receptor (Rattus norvegicus) (P30994 whole entry, looked up): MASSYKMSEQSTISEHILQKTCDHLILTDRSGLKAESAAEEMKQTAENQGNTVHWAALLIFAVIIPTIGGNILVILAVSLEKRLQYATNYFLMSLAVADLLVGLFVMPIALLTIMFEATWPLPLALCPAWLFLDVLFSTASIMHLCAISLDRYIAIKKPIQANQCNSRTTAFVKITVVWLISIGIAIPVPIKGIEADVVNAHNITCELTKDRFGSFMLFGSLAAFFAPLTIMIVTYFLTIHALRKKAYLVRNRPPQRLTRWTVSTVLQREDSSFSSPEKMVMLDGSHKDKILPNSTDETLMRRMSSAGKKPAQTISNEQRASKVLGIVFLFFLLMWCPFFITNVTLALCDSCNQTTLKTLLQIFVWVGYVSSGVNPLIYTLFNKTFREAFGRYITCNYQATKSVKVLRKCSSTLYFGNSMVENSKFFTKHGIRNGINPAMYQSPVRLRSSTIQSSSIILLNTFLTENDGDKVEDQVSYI
Chain of Histamine H1 receptor (Homo sapiens) (P35367 whole entry): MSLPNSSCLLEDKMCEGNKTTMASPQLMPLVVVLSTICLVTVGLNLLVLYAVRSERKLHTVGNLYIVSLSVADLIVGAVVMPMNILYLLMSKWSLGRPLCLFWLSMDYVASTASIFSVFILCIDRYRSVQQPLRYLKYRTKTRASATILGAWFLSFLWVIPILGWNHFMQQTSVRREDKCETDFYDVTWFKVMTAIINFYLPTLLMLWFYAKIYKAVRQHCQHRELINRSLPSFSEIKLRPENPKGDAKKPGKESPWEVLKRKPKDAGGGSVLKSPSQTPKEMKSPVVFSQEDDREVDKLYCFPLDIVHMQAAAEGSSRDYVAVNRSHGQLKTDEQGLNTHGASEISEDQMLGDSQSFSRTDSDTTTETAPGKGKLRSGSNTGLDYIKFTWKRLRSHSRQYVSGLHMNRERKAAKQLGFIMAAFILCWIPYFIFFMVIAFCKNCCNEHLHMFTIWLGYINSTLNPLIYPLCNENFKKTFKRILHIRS
Chain of Beta-1 adrenergic receptor (Oryctolagus cuniculus) (A0A4Y6F0G0 as listed by the source): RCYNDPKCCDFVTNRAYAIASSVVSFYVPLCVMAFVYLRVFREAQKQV

- residual activity [1]: 104%
- IC50 [2]: > 10 µM (not active)
- residual activity [3]: 95%
- residual activity [5]: 76%
- residual activity [6]: 96%
- residual activity [7]: 57%
- residual activity (Cavia porcellus): 100%
- residual activity [8]: 98%
- residual activity [9]: 87%
- residual activity [10]: 75%
- residual activity [11]: 82%
- residual activity [12]: 91%
- residual activity [13]: 89%
- residual activity [15]: 99%
- residual activity [16]: 66%
- residual activity [17]: 88%
- residual activity [18]: 102%
- residual activity [19]: 71%
- residual activity [21]: 98%
- residual activity [22]: 84%
- residual activity [24]: 97%
- residual activity [25]: 83%
- residual activity [26]: 80%
- residual activity [28]: 98%
- residual activity [29]: 80%
- residual activity [30]: 92%
- residual activity [31]: 92%
- residual activity [32]: 89%
- residual activity [33]: 90%
- residual activity [34]: 99%
- residual activity (Mus musculus): 95%
Compound: N=C(N)NCCC[C@@H](NC(=O)C(c1ccccc1)c1ccccc1)C(=O)NCc1ccc(CNC(N)=O)cc1
- residual activity [4]: 86%
- residual activity [14]: 84%
- residual activity (Rattus norvegicus): 83%
- residual activity [20]: 81%
- residual activity [23]: 109%
- activity at 10 µM (MAO-A): 97% (not active)
- residual activity [27]: 40%
